# Results as given in US4007282A, “Lowering lipid and sugar levels in the blood with a bis(4-hydroxyphenyl)alkanoic acid or ester thereof” (Hoechst Aktiengesellschaft, priority 1972, dated 1977).
# Read-outs that look alike come from different tables or passages of the source.
# Tests used:
# in vivo = conditions: mouse, po
# [1] = test system: hypertriglyceridemia induced by carbohydrates in male rats; test: Action on the hypertriglyceridemia induced by carbohydrates (fructose) in male rats; type: in vivo; conditions: Rattus norvegicus, 72 h, 3-day oral pre-treatment, vs untreated control, read-out: Change in percentage of hypertriglyceridemia induced by carbohydrates
# normolipemic rats = test: Reduction of serum lipid values in normolipemic rats (8 days oral); type: in vivo, rat; conditions: 8 doses, male rats; for serum cholesterol, change in percentage (A: referred to the initial value) / serum triglyceride, change in percentage (A: referred to the initial value): column A; for serum cholesterol, change in percentage (B: referred to the untreated control group) / serum triglyceride, change in percentage (B: referred to the untreated control group): column B
# Procedure: 1. Male rats having a normal serum lipid content were treated for eight days with different daily doses mentioned in Table 1. The values given in that Table stand for a change in the serum concentrations of certain lipid classes. The doses administered per os by means of an esophageal sound were 100, 30 and 10 mg/kg/day. Generally, prior to and after the treatment, blood samples were taken and the concentration of cholesterol in the serum was determined according to the method of Lauber and Richterich and that of triglycerides according to the method of Eggstein and Kreutz. In the examples of the following Table 1, the changes in the serum lipid values due to the treatment with the substances of the invention are defined as follows:
# a. The changes in percent in the final value of the treated group, referred to the initial value of the treated group, the initial value being 100 percent, and
# b. the change in the final value of the treated group, referred to the final value of an accompanying untreated control group, the untreated control group's value being defined as 100 percent. Thus, the value given in columns A is the change in percentage referred to the initial value, whereas the value given in columns B is the change in percentage of the treated group, referred to the untreated control group.
# [2] = test system: dietetic-medicamentous hyperlipemia of male rats; test: Action on the dietetic-medicamentous hyperlipemia of male rats; type: in vivo; conditions: Rattus norvegicus, po, 192 h, 100 mg/kg/day p.o., 8 days, male rats on cholesterol diet
# Excerpt: All the animals were fed with a diet food containing 2% of cholesterol, 2% of sodium cholate, 0.3% of methyl-thiouracil, 20% of coco fat and 44% of cane sugar. The serum lipid concentration of the animals treated with the compounds of the invention was compared to that of an untreated control group on the same diet, which diet causes the serum cholesteral concentration to rise within 1 week to about 10 times the initial value, that of the serum triglycerides to 3 times and that of the phospho-lipids in the serum to 4 times the initial value. The lipid phosphorus was determined according to the method of Messrs. Boehringer Mannheim W. Germany. At the same time as the diet was offered, the compounds of the invention were administered once a day to groups of rats, each containing 10 animals, over a period of 8 days by means of an esophageal sound. The change in percentage in the serum lipid concentration as compared to the control group (diet without active substance) is indicated in Table 2.
# mice = conditions: Table 3
# [3] = test system: rats that had been fed fructose doses; test: Hypoglycemic activity: lowering of the blood sugar level in rats fed fructose doses; type: in vivo, rat; conditions: 100 mg/kg once a day over 3 days, 24 hours after last administration, vs placebo control group
# Procedure: The hypoglycemic activity of some bis(4-hydroxy-phenyl) alkanoic acid derivatives of formulae I and II could be established by administering once a day, over 3 days, 100 mg of the active compound per kg of test animal to rats that had been fed fructose doses and by taking blood samples 24 hours after the last administration in order to determine the blood sugar level by means of an autoanalyzer.
# The lowering of the blood sugar content indicated in following Table 4 refers to a control group treated with placebos (blank doses).
# [4] = read-out: serum cholesterol, change in percentage as compared to the control group
# [5] = read-out: serum lipid phosphorus, change in percentage as compared to the control group
# [6] = read-out: serum triglyceride, change in percentage as compared to the control group
smiles,measurement,setting,value
"CCCCNC(=O)CC(C)(c1ccc(O)c(C(C)(C)C)c1)c1ccc(O)c(C(C)(C)C)c1 [Example 13, 3,3-Bis(4'-hydroxy-3'-tert.-butyl-phenyl)butanoic acid n-butylamide]",LD50,in vivo,8000 mg/kg
same,change in vivo at 30 mg/kg,[1],-17%
"CC(C)(C)c1cc(C(C)(CCC(=O)OCCOC(=O)CCC(C)(c2ccc(O)c(C(C)(C)C)c2)c2ccc(O)c(C(C)(C)C)c2)c2ccc(O)c(C(C)(C)C)c2)ccc1O [Example 18, Bis [4,4-bis(4'hydroxy-3'-tert.-butyl-phenyl)pentanoic acid] glycol ester]",LD50,in vivo,4340 mg/kg
same,"serum cholesterol, change in percentage (A: referred to the initial value)",normolipemic rats; 100 mg/kg/day p.o.,-48%
same,"serum triglyceride, change in percentage (A: referred to the initial value)",normolipemic rats; 100 mg/kg/day p.o.,-51%
same,"serum cholesterol, change in percentage (B: referred to the untreated control group)",normolipemic rats; 100 mg/kg/day p.o.,-33%
same,"serum triglyceride, change in percentage (B: referred to the untreated control group)",normolipemic rats; 100 mg/kg/day p.o.,-17%
same,change in vivo at 100 mg/kg,[2]; [4],-36%
same,change in vivo at 100 mg/kg,[2]; [5],-37%
same,change in vivo at 100 mg/kg,[2]; [6],-19%
same,change in vivo at 30 mg/kg,[1],-34%
same,change in vivo at 100 mg/kg,[1],-46%
"Cc1cc(C(C)(CC(=O)O)c2ccc(O)c(C)c2)ccc1O [Example 1, 3,3-Bis(4'-hydroxy-3'-methyl-phenyl)butanoic acid]",change in vivo at 100 mg/kg,[2]; [4],-11%
same,change in vivo at 100 mg/kg,[2]; [5],-15%
same,change in vivo at 100 mg/kg,[2]; [6],-18%
"CC(C)(C)c1cc(C(C)(CC(=O)OCCOC(=O)CC(C)(c2cc(Br)c(O)c(C(C)(C)C)c2)c2cc(Br)c(O)c(C(C)(C)C)c2)c2cc(Br)c(O)c(C(C)(C)C)c2)cc(Br)c1O [Example 21, Bis [3,3-bis(4'-hydroxy-3'-tert.-butyl-5'-bromophenyl)butanoic acid] glycol ester]",LD50,in vivo,4090 mg/kg
"CC(C)(C)c1cc(C(C)(CC(=O)OCCOC(=O)CC(C)(c2ccc(O)c(C(C)(C)C)c2)c2ccc(O)c(C(C)(C)C)c2)c2ccc(O)c(C(C)(C)C)c2)ccc1O [Example 16, Bis [3,3-bis(4'-hydroxy-3'-tert.-butyl-phenyl)butanoic acid] glycol ester]","serum cholesterol, change in percentage (A: referred to the initial value)",normolipemic rats; 30 mg/kg/day p.o.,-10%
same,"serum cholesterol, change in percentage (B: referred to the untreated control group)",normolipemic rats; 30 mg/kg/day p.o.,-15%
same,"serum triglyceride, change in percentage (B: referred to the untreated control group)",normolipemic rats; 30 mg/kg/day p.o.,-32%
same,"serum cholesterol, change in percentage (A: referred to the initial value)",normolipemic rats; 100 mg/kg/day p.o.,-20%
same,"serum triglyceride, change in percentage (A: referred to the initial value)",normolipemic rats; 100 mg/kg/day p.o.,-27%
same,"serum cholesterol, change in percentage (B: referred to the untreated control group)",normolipemic rats; 100 mg/kg/day p.o.,-21%
same,"serum triglyceride, change in percentage (B: referred to the untreated control group)",normolipemic rats; 100 mg/kg/day p.o.,-26%
same,change in vivo at 30 mg/kg,[1],-24%
"CCCCOC(=O)CC(C)(c1ccc(O)c(C)c1)c1ccc(O)c(C)c1 [Example 8, 3,3-bis(4'-hydroxy-3'-methyl-phenyl)butanoic acid n-butyl ester]",LD50,in vivo,> 8000 mg/kg
same,"serum cholesterol, change in percentage (B: referred to the untreated control group)",normolipemic rats; 10 mg/kg/day p.o.,-13%
same,"serum triglyceride, change in percentage (B: referred to the untreated control group)",normolipemic rats; 10 mg/kg/day p.o.,-25%
same,"serum cholesterol, change in percentage (A: referred to the initial value)",normolipemic rats; 30 mg/kg/day p.o.,-14%
same,"serum cholesterol, change in percentage (B: referred to the untreated control group)",normolipemic rats; 30 mg/kg/day p.o.,-16%
same,"serum triglyceride, change in percentage (B: referred to the untreated control group)",normolipemic rats; 30 mg/kg/day p.o.,-22%
same,"serum cholesterol, change in percentage (A: referred to the initial value)",normolipemic rats; 100 mg/kg/day p.o.,-43%
same,"serum triglyceride, change in percentage (A: referred to the initial value)",normolipemic rats; 100 mg/kg/day p.o.,-23%
same,"serum cholesterol, change in percentage (B: referred to the untreated control group)",normolipemic rats; 100 mg/kg/day p.o.,-26%
same,change in vivo at 100 mg/kg,[2]; [4],-36%
same,change in vivo at 100 mg/kg,[2]; [5],-37%
same,change in vivo at 100 mg/kg,[2]; [6],-39%
same,LD50 mice p.o.,mice,> 8000 mg/kg
"CCCCOC(=O)C(c1ccc(O)c(C(C)(C)C)c1)c1ccc(O)c(C(C)(C)C)c1 [Example 5, Bis(4'-hydroxy-3'-tert.-butyl-phenyl)ethanoic acid n-butyl ester]",lowering of the blood sugar level in per cent,[3],-30 per cent
"CC(C)(C)c1cc(C(C)(CC(=O)O)c2ccc(O)c(C(C)(C)C)c2)ccc1O [Example 2, 3,3-Bis(4'-hydroxy-3'-tert.-butyl-phenyl)butanoic acid]",LD50,in vivo,2000 mg/kg
same,change in vivo at 100 mg/kg,[2]; [4],-19%
same,change in vivo at 100 mg/kg,[2]; [5],-9%
same,change in vivo at 100 mg/kg,[2]; [6],-13%
same,change in vivo at 30 mg/kg,[1],-63%
"CC(C)(C)c1cc(C(C)(CC(=O)OCCCCCCOC(=O)CC(C)(c2ccc(O)c(C(C)(C)C)c2)c2ccc(O)c(C(C)(C)C)c2)c2ccc(O)c(C(C)(C)C)c2)ccc1O [Example 17, Bis [3,3-bis(4'-hydroxy-3'-tert.-butyl-phenyl)butanoic acid]hexane-diol-1,6ester]",LD50,in vivo,> 8000 mg/kg
same,lowering of the blood sugar level in per cent,[3],-18 per cent
same,change in vivo at 100 mg/kg,[1],-10%
"CCCCOC(=O)CCC(C)(c1ccc(O)c(C(C)(C)C)c1)c1ccc(O)c(C(C)(C)C)c1 [Example 15, 4,4-Bis(4'-hydroxy-3'-tert.-butyl-phenyl)pentanoic acid n-butyl ester]",LD50,in vivo,> 8000 mg/kg
same,"serum triglyceride, change in percentage (A: referred to the initial value)",normolipemic rats; 10 mg/kg/day p.o.,-20%
same,"serum triglyceride, change in percentage (B: referred to the untreated control group)",normolipemic rats; 10 mg/kg/day p.o.,-34%
same,"serum cholesterol, change in percentage (A: referred to the initial value)",normolipemic rats; 30 mg/kg/day p.o.,-13%
same,"serum triglyceride, change in percentage (A: referred to the initial value)",normolipemic rats; 30 mg/kg/day p.o.,-32%
same,"serum cholesterol, change in percentage (B: referred to the untreated control group)",normolipemic rats; 30 mg/kg/day p.o.,-10%
same,"serum triglyceride, change in percentage (B: referred to the untreated control group)",normolipemic rats; 30 mg/kg/day p.o.,-37%
same,"serum cholesterol, change in percentage (A: referred to the initial value)",normolipemic rats; 100 mg/kg/day p.o.,-37%
same,"serum triglyceride, change in percentage (A: referred to the initial value)",normolipemic rats; 100 mg/kg/day p.o.,-36%
same,"serum cholesterol, change in percentage (B: referred to the untreated control group)",normolipemic rats; 100 mg/kg/day p.o.,-20%
same,"serum triglyceride, change in percentage (B: referred to the untreated control group)",normolipemic rats; 100 mg/kg/day p.o.,-13%
same,change in vivo at 100 mg/kg,[2]; [4],-57%
same,change in vivo at 100 mg/kg,[2]; [5],-53%
same,change in vivo at 100 mg/kg,[2]; [6],-34%
same,LD50 mice p.o.,mice,> 8000 mg/kg
same,change in vivo at 100 mg/kg,[1],-28%
"CC(C)(C)c1cc(C(C)(CCC(=O)O)c2ccc(O)c(C(C)(C)C)c2)ccc1O [Example 14, 4,4-Bis(4'-hydroxy-3'-tert.-butyl-phenyl)pentanoic acid]",LD50,in vivo,4000 mg/kg
same,change in vivo at 100 mg/kg,[2]; [4],-36%
same,change in vivo at 100 mg/kg,[2]; [5],-25%
same,change in vivo at 100 mg/kg,[2]; [6],-13%
"CC(C)(C)c1cc(C(C(=O)O)c2ccc(O)c(C(C)(C)C)c2)ccc1O [Example 4, Bis(4'-hydroxy-3'-tert.-butyl-phenyl)ethanoic acid]",change in vivo at 100 mg/kg,[2]; [4],-29%
same,change in vivo at 100 mg/kg,[2]; [5],-25%
same,change in vivo at 100 mg/kg,[2]; [6],-21%
"CCOC(=O)C(C)(C)Oc1ccc(Cl)cc1 [Clofibrat, reference compound]",LD50,"in vivo; LD50 mice p.o., mice, Table 3",2000 to 2500 mg/kg
same,LD50,"in vivo; p.o. LD50 mice, mice, Table 2",2000 to 25000 mg/kg
same,"serum cholesterol, change in percentage (A: referred to the initial value)",normolipemic rats; 100 mg/kg/day p.o.,-22%
same,"serum triglyceride, change in percentage (A: referred to the initial value)",normolipemic rats; 100 mg/kg/day p.o.,-48%
same,"serum cholesterol, change in percentage (B: referred to the untreated control group)",normolipemic rats; 100 mg/kg/day p.o.,-15%
same,"serum triglyceride, change in percentage (B: referred to the untreated control group)",normolipemic rats; 100 mg/kg/day p.o.,-37%
same,change in vivo at 100 mg/kg,[2]; [4],0%
same,change in vivo at 100 mg/kg,[2]; [5],-12%
same,change in vivo at 100 mg/kg,[2]; [6],-27%
same,change in vivo at 100 mg/kg,[1],-15%
"CC(CCC(=O)O)(c1ccc(O)cc1)c1ccc(O)cc1 [Example 19, 4,4-Bis(4'-hydroxy-phenyl)pentanoic acid]",lowering of the blood sugar level in per cent,[3],-20 per cent
same,change in vivo at 100 mg/kg,[2]; [4],-17%
same,change in vivo at 100 mg/kg,[2]; [5],-17%
same,change in vivo at 100 mg/kg,[2]; [6],-28%
same,change in vivo at 100 mg/kg,[1],-27%
